± gives the expanded uncertainty stated by the source.
Tests used:
[1] = DTA
[2] = Molar enthalpy of transition or fusion; conditions: DSC

In the case of `CCCCCCCCCCOn1cc[n+](OCCCCCCCCCC)c1C.O=S(=O)([N-]S(=O)(=O)C(F)(F)F)C(F)(F)F`, the Triple point temperature ([1]; Crystal 1) is reported as 303.1 ± 2.1 K and the “Molar enthalpy of transition or fusion” value ([2]; Crystal 1) is reported as 19 ± 0.502 kcal/mol.
With `CC[N+](C)(C)CCO.F[P-](F)(F)(F)(F)F` the Triple point temperature ([1]; Crystal 1) was 272 ± 2.1 K and the “Molar enthalpy of transition or fusion” value ([2]; Crystal 1) was 2.53 ± 0.0908 kcal/mol.
In the case of `CCCCCCCCOCn1cc[n+](COCCCCCCCC)c1.O=S(=O)([N-]S(=O)(=O)C(F)(F)F)C(F)(F)F`, the Triple point temperature ([1]; Crystal 1) is reported as 287.7 ± 2.1 K and the “Molar enthalpy of transition or fusion” value ([2]; Crystal 1) is reported as 8.17 ± 0.229 kcal/mol.
Work on `CC[N+](C)(C)CCO.F[B-](F)(F)F` yielded a Triple point temperature ([1]; Crystal 1) of 426.8 ± 2.1 K, a Triple point temperature ([1]; Crystal 2) of 311.5 ± 0.5 K and a Triple point temperature ([1]; Crystal 3) of 252.8 ± 0.5 K. The Triple point temperature ([1]; Metastable crystal) was 146 ± 1 K, the “Molar enthalpy of transition or fusion” value ([2]; Crystal 1) was 1.23 ± 0.0598 kcal/mol and the “Molar enthalpy of transition or fusion” value ([2]; Crystal 2) was 0.28 ± 0.0382 kcal/mol. The “Molar enthalpy of transition or fusion” value ([2]; Crystal 3) was 0.731 ± 0.0478 kcal/mol.
With `CCCC[N+](C)(C)CCO.[Br-]` [N-(2-hydroxyethyl)-N,N-dimethylbutanaminium bromide] the Triple point temperature ([1]; Crystal 1) was 359.3 ± 2.1 K, the Triple point temperature ([1]; Metastable crystal) was 187.3 ± 0.5 K and the “Molar enthalpy of transition or fusion” value ([2]; Crystal 1) was 3.16 ± 0.105 kcal/mol.
For `CC[N+](C)(C)CCO.N#C[N-]C#N` [N-ethyl-2-hydroxyethyl-N,N-dimethylammonium dicyanamide], the Triple point temperature ([1]; Crystal 1) was 282.7 ± 2.1 K, the Triple point temperature ([1]; Metastable crystal) was 168.4 ± 0.5 K and the “Molar enthalpy of transition or fusion” value ([2]; Crystal 1) was 2.06 ± 0.0789 kcal/mol.
With `CCCCOCn1cc[n+](COCCCC)c1.F[B-](F)(F)F` [1,3-bis(butoxymethyl)-1H-imidazolium tetrafluoroborate] the Triple point temperature ([1]; Crystal 1) was 281.4 ± 2.1 K, the Triple point temperature ([1]; Crystal 2) was 267.4 ± 0.5 K and the “Molar enthalpy of transition or fusion” value ([2]; Crystal 1) was 2.04 ± 0.0789 kcal/mol. The “Molar enthalpy of transition or fusion” value ([2]; Crystal 2) was 2.6 ± 0.0908 kcal/mol.

— the NIST ThermoML archive (doi:10.1016/j.tca.2006.06.018)
